The term inhibition denotes the percentage by which the read-out fell short of the control. Lower therefore signals a response near the control.

Non-standard residues stand in square brackets, D forms with d. Residues, ends and D or L forms follow the SMILES beside them. *: point of attachment. Boc = CC(C)(C)OC(=O)*; OBn = c1ccc(CO*)cc1; For = O=C*

T1 sequence (P30547 whole entry): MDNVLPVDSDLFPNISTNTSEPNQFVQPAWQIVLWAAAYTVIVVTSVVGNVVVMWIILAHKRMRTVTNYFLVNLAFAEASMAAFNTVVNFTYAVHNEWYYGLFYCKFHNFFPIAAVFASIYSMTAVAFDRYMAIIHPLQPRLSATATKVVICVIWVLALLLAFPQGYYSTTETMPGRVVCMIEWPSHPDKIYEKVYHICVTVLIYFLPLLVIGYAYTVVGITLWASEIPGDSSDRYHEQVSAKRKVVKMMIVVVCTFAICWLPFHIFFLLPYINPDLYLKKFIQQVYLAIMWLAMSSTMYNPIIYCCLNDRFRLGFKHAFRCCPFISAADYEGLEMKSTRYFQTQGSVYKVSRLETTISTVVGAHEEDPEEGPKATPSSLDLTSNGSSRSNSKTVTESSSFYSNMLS

The test has as its target T1, Substance P receptor (Cavia porcellus, UniProt P30547).
T1 construct: from tissue; host or cells: guinea pig (male Hartley) trachea and lung, crude membrane fraction
Kind of test: 3H-Substance P receptor binding to guinea pig crude lung membrane preparation. The settings on record: test compound 1 μg/ml; 3H-substance P 1 nM; guinea pig crude lung membrane fraction; 4° C., 30 minutes. On the procedure:
1. ^3 H-Substance P receptor binding
(a) Crude lung membrane preparation
Male Hartley strain guinea pigs were sacrificed by decapitation. The trachea and lung were removed and homogenized in buffer (0.25M sucrose, 50 mM Tris-HCl pH 7.5, 0.1 mM EDTA) by using Polytoron (Kinematica). The homogenate was centrifuged (1000 xg, 10 min) to remove tissue clumps and the supernatant was centrifuges (14000 xg 20 min) to yield pellets. The pellets were resuspended in buffer (5 mM Tris-HCl pH 7.5), homogenized with a teflon homogenizer and centrifuged (14000 xg, 20 min) to yield pellets which were referred to as crude membrane fractions. The obtained pellets were stored at -70° C. until use.
(b) ^3 H-Substance P binding to preparative membrane
Frozen crude membrane fractions were thawed and resuspended in Medium 1 (50 mM Tris-HCl pH 7.5, 5 mM MnCl2, 0.02% BSA, 2 μg/ml chymostatin, 4 μg/ml leupeptin, 40 μg/ml bacitracin.) ^3 H-substance P (1 nM) was incubated with 100 μl of the membrane preparation in Medium 1 at 4° C. for 30 minutes in a final volume of 500 µl. At the end of the incubation period, reaction mixture was quickly filtered over a Whatman GF/B glass filter (pretreated with 0.1% polyethylene imine for 3 hours prior to use) under aspiration. The filters were then washed four times with 5 ml of the buffer (50 mM Tris-HCl, pH 7.5). The radioactivity was counted in 5 ml of Aquazol-2 in Packerd scintillation counter (Packerd TRI-CARB 4530).
The compound `CC(=O)N[C@@H](CCC(=O)N(C)C)C(=O)N[C@H](Cc1cn(C=O)c2ccccc12)C(=O)N[C@@H](Cc1ccccc1)C(=O)N(C)Cc1ccccc1` [Test Compound (l), Ac-Glu(NMe2)-D-Trp(CHO)-Phe-NMeBzl] registered an inhibition at 1 µg/mL of 100%.

Compound `CC(C)(C)OC(=O)N[C@@H](CO)C(=O)N[C@H](Cc1cn(C=O)c2ccccc12)C(=O)N[C@@H](Cc1ccccc1)C(=O)OCc1ccccc1` [Test Compound (e), Boc-Ser-D-Trp(CHO)-Phe-OBzl] (Boc-Ser-[dW](For)-Phe-OBn) yielded an inhibition at 1 µg/mL of 99%.

The compound `CC(C)(C)OC(=O)N[C@@H](CC(N)=O)C(=O)N[C@H](Cc1cn(C=O)c2ccccc12)C(=O)N[C@@H](Cc1ccccc1)C(=O)OCc1ccccc1` [Test Compound (d), Boc-Asn-D-Trp(CHO)-Phe-OBzl] (Boc-Asn-[dW](For)-Phe-OBn) showed an inhibition at 1 µg/mL of 99%.

As to `CN(C)C(=O)CC[C@H](NC(=O)OC(C)(C)C)C(=O)N[C@H](Cc1cn(C=O)c2ccccc12)C(=O)N[C@@H](Cc1ccccc1)C(=O)N(C)Cc1ccccc1` [Test Compound (j), Boc-Glu(NMe2)-D-Trp(CHO)-Phe-NMeBzl], testing at 1 µg/mL gave an inhibition of 100%.

In turn, `CC(=O)N[C@@H](CCC(N)=O)C(=O)N[C@H](Cc1cn(C=O)c2ccccc12)C(=O)N[C@@H](Cc1ccccc1)C(=O)OCc1ccccc1` [Test Compound (b), Ac-Gln-D-Trp(CHO)-Phe-OBzl] (Ac-Gln-[dW](For)-Phe-OBn) had an inhibition at 1 µg/mL of 100%.

Take `CC(=O)N[C@H](C(=O)N[C@H](Cc1cn(C=O)c2ccccc12)C(=O)N[C@@H](Cc1ccccc1)C(=O)N(C)Cc1ccccc1)[C@@H](C)O` [Test Compound (k), Ac-Thr-D-Trp(CHO)-Phe-NMeBzl]: the inhibition at 1 µg/mL turned out to be 100%.

In turn, `C[C@@H](O)[C@H](NC(=O)OC(C)(C)C)C(=O)N[C@H](Cc1cn(C=O)c2ccccc12)C(=O)N[C@@H](Cc1ccccc1)C(=O)N(C)Cc1ccccc1` [Test Compound (i), Boc-Thr-D-Trp(CHO)-Phe-NMeBzl] registered an inhibition at 1 µg/mL of 100%.

Turning to “Z-Gln-D-Trp(CHO) -Phe-OBzl [Test Compound (c)]”, the “Inhibition (%)” value came out at 93%.

`CN(C)C(=O)CC[C@H](NC(=O)OC(C)(C)C)C(=O)N[C@H](Cc1cn(C=O)c2ccccc12)C(=O)N[C@@H](Cc1ccccc1)C(=O)OCc1ccccc1` [Test Compound (f), Boc-Glu(NMe2)-D-Trp(CHO)-Phe-OBzl] (Boc-Glu(NMe2)-[dW](For)-Phe-OBn) returned an inhibition at 1 µg/mL of 100%.

The compound `C[C@@H](O)[C@H](NC(=O)OC(C)(C)C)C(=O)N[C@H](Cc1cn(C=O)c2ccccc12)C(=O)N[C@@H](Cc1ccccc1)C(=O)OCc1ccccc1` [Test Compound (g), Boc-Thr-D-Trp(CHO)-Phe-OBzl] (Boc-Thr-[dW](For)-Phe-OBn) came in with an inhibition at 1 µg/mL of 100%.

With `CN(Cc1ccccc1)C(=O)[C@H](Cc1ccccc1)NC(=O)[C@@H](Cc1cn(C=O)c2ccccc12)NC(=O)[C@H](CCC(N)=O)NC(=O)OC(C)(C)C` [Test Compound (h), Boc-Gln-D-Trp(CHO)-Phe-NMeBzl], the inhibition at 1 µg/mL is 100%.

For `CC(C)(C)OC(=O)N[C@@H](CCC(N)=O)C(=O)N[C@H](Cc1cn(C=O)c2ccccc12)C(=O)N[C@@H](Cc1ccccc1)C(=O)OCc1ccccc1` [Test Compound (a), Boc-Gln-D-Trp(CHO)-Phe-OBzl] (Boc-Gln-[dW](For)-Phe-OBn), the inhibition at 1 µg/mL turned out to be 100%.

These data come from patent US5187156A, “Peptide compounds, processes for preparation thereof and pharmaceutical composition comprising the same” (priority 1988, dated 1993).
